Test results: patent US8362000B2, “Azetidinyl diamides as monoacylglycerol lipase inhibitors” (Janssen Pharmaceutica NV, priority 2009, dated 2013)
Numbering of substitutions follows the chain as printed. Read-outs that look alike come from different tables or passages of the source.

Experiments:
[1] = molecular target: T1, purified wild type MGL (wt-MGLL 6H-11-313) (Homo sapiens, UniProt Q99685)
T1 sequence (Q99685 1-303): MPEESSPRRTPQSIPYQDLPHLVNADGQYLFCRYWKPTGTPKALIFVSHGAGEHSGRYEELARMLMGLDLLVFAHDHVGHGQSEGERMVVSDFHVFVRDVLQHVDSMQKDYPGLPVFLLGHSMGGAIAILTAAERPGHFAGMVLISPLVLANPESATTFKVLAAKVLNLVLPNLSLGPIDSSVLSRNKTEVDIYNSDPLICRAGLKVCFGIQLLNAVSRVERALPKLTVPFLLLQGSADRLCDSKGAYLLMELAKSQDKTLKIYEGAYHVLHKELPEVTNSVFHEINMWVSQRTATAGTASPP

[2] = test system: CFA-induced paw radiant heat hypersensitivity; assay: CFA-induced paw radiant heat hypersensitivity; type: in vivo, rat; settings: Rattus norvegicus, po, 30 mg/kg p.o., HPβCD, last time point 180 or 300 min
MGL = molecular target: T2, MGL (Rattus norvegicus, UniProt Q8R431); assay: 2-AG accumulation assay in rat brain homogenate; type: biochemical; settings: rat brain homogenate, 2-AG accumulation as percent of vehicle; for 2-AG accumulation, % of vehicle control at 0.01 µM: compound 0.01 μM, read-out: Rat Brain 2AG % VehCntrl (%) @ 0.01 μM; for 2-AG accumulation, % of vehicle control at 0.1 µM: compound 0.1 μM, read-out: Rat Brain 2AG % VehCntrl (%) @ 0.1 μM; for 2-AG accumulation, % of vehicle control at 1 µM: compound 1 μM, read-out: Rat Brain 2AG % VehCntrl (%) @ 1 μM; for 2-AG accumulation, % of vehicle control at 10 µM: compound 10 μM, read-out: Rat Brain 2AG % VehCntrl (%) @ 10 μM
T2 construct: one g rat brain was homogenized using a Polytron homogenizer; from tissue; host or cells: rat brain homogenate
T2 sequence (Q8R431 1-303): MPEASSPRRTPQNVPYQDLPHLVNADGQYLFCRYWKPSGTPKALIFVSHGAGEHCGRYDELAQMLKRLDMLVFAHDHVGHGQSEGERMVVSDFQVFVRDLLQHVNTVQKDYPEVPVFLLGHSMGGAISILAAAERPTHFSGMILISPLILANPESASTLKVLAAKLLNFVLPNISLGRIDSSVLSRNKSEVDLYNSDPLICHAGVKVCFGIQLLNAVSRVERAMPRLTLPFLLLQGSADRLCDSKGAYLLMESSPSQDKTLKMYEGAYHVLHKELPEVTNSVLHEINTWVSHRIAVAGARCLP

mutant MGL = molecular target: T3, mutant MGL (Homo sapiens, UniProt Q99685, L169S/L176S); assay: MGL ThermoFluor assay - mutant; type: binding
T3 sequence (Q99685 1-303 L169S/L176S): T1 sequence (Q99685 1-303) with L169S, L176S

[3] = group mean values, read-out: CFA thermal hypersensitivity Method 1: peak % reversal
[4] = individual animal values, read-out: CFA thermal hypersensitivity Method 2: peak % reversal
[5] = ThermoFluor thermal stability binding assay, read-out: MGL mutant ThermoFluor Kd
[6] = ThermoFluor concentration-response, read-out: MGL mutant ThermoFluor Kd

Compound	IC50 [1]	inhibition in vivo at 30 mg/kg [2, 3]	inhibition in vivo at 30 mg/kg [2, 4]	2-AG accumulation, % of vehicle control at 0.01 µM (MGL)	2-AG accumulation, % of vehicle control at 0.1 µM (MGL)	2-AG accumulation, % of vehicle control at 1 µM (MGL)	2-AG accumulation, % of vehicle control at 10 µM (MGL)	Kd (mutant MGL; [5])	Kd (mutant MGL; [6])	Kd (mutant MGL; compound concentration measured by qNMR, read-out: MGL mutant ThermoFluor qKd (using qNMR conc.))
O=C(c1cscn1)N1CCN(C2CN(C(=O)c3cc4ccc(C(F)(F)F)cc4s3)C2)CC1 [Cpd 337]	13 nM	14.3%	17.6%	103%	166%	272%	671%	49.8 nM	–	–
O=C(c1ccc(Oc2cccc(Cl)c2)c(F)c1)N1CC(N2CCN(C(=O)c3cscn3)CC2)C1 [Cpd 662]	11 nM	21%	24%	–	–	274%	–	–	100 nM	–
O=C(c1ccc2nc(-c3ccc(C(F)(F)F)cc3)oc2c1)N1CC(N2CCN(C(=O)c3nccs3)CC2)C1 [Cpd 314, 6-({3-[4-(1,3-Thiazol-2-ylcarbonyl)piperazin-1-yl]azetidin-1-yl}carbonyl)-2-[4-(trifluoromethyl)phenyl]-1,3-benzoxazole]	< 5 nM	41%	41.2%	175%	237%	512%	553%	39.2 nM	–	–
Cc1c(C(=O)N2CC(N3CCN(C(=O)c4cscn4)CC3)C2)sc2cc(C(F)(F)F)ccc12 [Cpd 674, 1-(1-{[3-Methyl-6-(trifluoromethyl)-1-benzothiophen-2-yl]carbonyl}azetidin-3-yl)-4-(1,3-thiazol-4-ylcarbonyl)piperazine]	19 nM	57.7%	–	–	–	891%	–	–	3 nM	–
Cc1c(C(=O)N2CC(N3CCN(C(=O)c4ccc[nH]4)CC3)C2)sc2cc(C(F)(F)F)ccc12 [Cpd 657, 1-(1-{[3-Methyl-6-(trifluoromethyl)-1-benzothiophen-2-yl]carbonyl}azetidin-3-yl)-4-(1H-pyrrol-2-ylcarbonyl)piperazine]	9 nM	66%	–	–	–	581%	–	–	2 nM	2 nM
O=C(c1ccc2c(cnn2-c2ccccc2)c1)N1CC(N2CCN(C(=O)c3nccs3)CC2)C1 [Cpd 1360, 1-Phenyl-5-({3-[4-(1,3-thiazol-2-ylcarbonyl)piperazin-1-yl]azetidin-1-yl}carbonyl)-1H-indazole]	< 5 nM	40.5%	40.5%	–	–	576%	–	–	8 nM	–
O=C(c1ccc2c(ccn2-c2ccc(C(F)(F)F)cc2)c1)N1CCN(C2CN(C(=O)c3nccs3)C2)CC1 [Cpd 1338, 5-({4-[1-(1,3-Thiazol-2-ylcarbonyl)azetidin-3-yl]piperazin-1-yl}carbonyl)-1-[4-(trifluoromethyl)phenyl]-1H-indole]	< 5 nM	86.3%	–	–	–	877%	–	–	15 nM	–
O=C(c1ccc(-c2ccccc2)cc1)N1CC(N2CCN(C(=O)c3cscn3)CC2)C1 [Cpd 7, 1-[1-(Biphenyl-4-ylcarbonyl)azetidin-3-yl]-4-(1,3-thiazol-4-ylcarbonyl)piperazine]	131 nM	77.8%	76.2%	–	216%	238%	568%	–	46.6 nM	–
O=C(c1ccccc1)N1CCN(C2CN(C(=O)c3cc4ccc(C(F)(F)F)cc4s3)C2)CC1 [Cpd 325, 1-(Phenylcarbonyl)-4-(1-{[6-(trifluoromethyl)-1-benzothiophen-2-yl]carbonyl}azetidin-3-yl)piperazine]	69.5 nM	62.1%	63.1%	–	–	478%	–	92.7 nM	–	–
